From PubChem BioAssay (NCI) come the findings set out here.

The structures appear in SMILES notation. Several values for one entry are separate records, joined by “and”; a condition that tells them apart may be missing. Equal values may be shown once.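 Tested at 5 concentrations; 48 h exposure; 96-well plates; endpoints linearly interpolated, else capped at highest concentration. GI50: concentration for 50% inhibition of growth. TGI: total growth inhibition.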 *1 amine or outer side, *2 acyl side, *3 side chain or, on linkers, in order; H or OH if unused. Where a SMILES comes first, the peptide text is derived from it. Bridges are numbered along the chain shown (N, C = ends). [ ]: non-standard residue; d: D form. The star is where a group is joined. ξ: configuration not given here. X4 = CCC(C)C(N[*:1])C(O)CC(=O)O[C@H](C(=O)C(C)C(=O)[*:2])C(C)C; NMeY = CN[C@@H](Cc1ccc(O)cc1)C(=O)O; ξNMeL = CNC(CC(C)C)C(=O)O; Cbz = O=C(OCc1ccccc1)*; Boc = CC(C)(C)OC(=O)*; Aib = CC(C)(N)C(=O)O; ξT = CC(O)C(N)C(=O)O; OBn = c1ccc(CO*)cc1; OtBu = CC(C)(C)O*; βAla = NCCC(=O)O

Among the test systems are M14 melanoma; SN12C renal; MOLT-4 leukemia; A549 NSCLC; HT29 colon; SK-MEL-2 melanoma; TK-10 renal; OVCAR-8 ovarian; NCI/ADR-RES ovarian; SF-268 CNS.
Holding throughout (test): growth of human tumour cells (NCI), 48 h

For `NC(CCCCNC(=O)OCc1ccccc1)C(=O)NC(CCCCNC(=O)OCc1ccccc1)C(=O)ON1C(=O)CCC1=O` (configuration not stated), the TGI in the assay with M14 melanoma, with SN12C renal, in the assay on MOLT-4 leukemia, in the assay on A549 NSCLC, in the assay on HT29 colon and in the assay on SK-MEL-2 melanoma was greater than 100 µM throughout. Also, the TGI in the assay with TK-10 renal and with OVCAR-8 ovarian was greater than 100 µM throughout.

Take `O=C(O)c1ccc(Nc2nc3cc(C(F)(F)F)ccc3nc2C(=O)O)cc1`: the TGI in the assay with SN12C renal, in the assay on MOLT-4 leukemia, in the assay with HT29 colon, with NCI/ADR-RES ovarian, in the assay with SK-MEL-2 melanoma and in the assay with OVCAR-8 ovarian was greater than 100 µM throughout. The same compound showed a TGI in the assay with SF-268 CNS greater than 100 µM.

For the compound `CC(C)n1c(=O)n(-c2ccccc2)n(C(C)(C)C)c1=O`, the TGI with M14 melanoma, in the assay with SN12C renal, with MOLT-4 leukemia, in the assay on A549 NSCLC, with HT29 colon and in the assay on NCI/ADR-RES ovarian was greater than 100 µM throughout. Moreover, the TGI in the assay on SK-MEL-2 melanoma, with TK-10 renal and in the assay with OVCAR-8 ovarian was greater than 100 µM in each case.

Take `COS(=O)c1cc(Cl)cc(Cl)c1O` (configuration not stated): the TGI with M14 melanoma, in the assay with SN12C renal, in the assay on MOLT-4 leukemia, in the assay with HT29 colon, in the assay on SK-MEL-2 melanoma and with TK-10 renal was greater than 100 µM throughout. In the assay on SF-268 CNS, this compound gave a TGI greater than 100 µM.

On to `CCOC(=O)c1c(N2CCOCC2)[nH]c(=O)c(C(c2ccc(OC)cc2)c2c(O)c(C(=O)OCC)c(N3CCOCC3)[nH]c2=O)c1O`, for which the TGI in the assay with M14 melanoma, in the assay with SN12C renal, in the assay with MOLT-4 leukemia, in the assay with A549 NSCLC, in the assay on HT29 colon and with NCI/ADR-RES ovarian was greater than 100 µM throughout. In addition, the TGI in the assay on TK-10 renal, with OVCAR-8 ovarian and with SF-268 CNS was greater than 100 µM throughout.

With `CCC(C)C1NC(=O)C(NC(=O)C(CC(C)C)N(C)C(=O)[C@@H]2CCCN2)C(C)OC(=O)[C@H](Cc2ccc(OC)cc2)N(C)C(=O)[C@@H]2CCCN2C(=O)[C@H](CC(C)C)NC(=O)C(C)C(=O)[C@H](C(C)C)OC(=O)CC1O` (some centres not stated) (H-P[ξNMeL][ξT][X4]LP[NMeY](Me); ester 3-C), the TGI in the assay with M14 melanoma is 0.00865 µM; in the assay with MOLT-4 leukemia, 0.00507 µM; in the assay with A549 NSCLC, 0.0246 µM and 0.0289 µM; in the assay with HT29 colon, 0.0151 µM and 0.0127 µM; in the assay with NCI/ADR-RES ovarian, 0.78 µM and 3.74 µM; in the assay with TK-10 renal it was 0.027 µM and 0.141 µM. For the same compound, the TGI in the assay with OVCAR-8 ovarian is 0.0243 µM and 0.0387 µM; with SF-268 CNS, 0.00314 µM and 0.0195 µM. In the assay on NCI/ADR-RES ovarian, the GI50 was 0.233 µM.

In the case of `COc1cc2ccnc3c2c(c1O)N(C)C=C3`, the TGI was 37 µM in the assay on M14 melanoma; greater than 61.2 µM in the assay with SN12C renal; greater than 100 µM with MOLT-4 leukemia; 50.3 µM with A549 NSCLC; 54.5 µM with NCI/ADR-RES ovarian; 33.9 µM in the assay with SK-MEL-2 melanoma. Moreover, the TGI was 32.9 µM with TK-10 renal, greater than 46.8 µM in the assay with OVCAR-8 ovarian and 36.6 µM in the assay on SF-268 CNS.

For `COC(OC)C(O)C1OC=CC1n1cnc2c(N)ncnc21` (configuration not stated), the TGI in the assay with SN12C renal, with MOLT-4 leukemia, with HT29 colon, in the assay with NCI/ADR-RES ovarian, in the assay on SK-MEL-2 melanoma and with TK-10 renal was greater than 100 µM each time. The TGI with SF-268 CNS is greater than 100 µM.

Regarding `CSC1SCC2C(=O)N(C)C3(CC3C)C(=O)OCC(NC(=O)c3nc4ccccc4cc3O)C(=O)NC(C)C(=O)N(C)C1C(=O)N(C)C1(CC1C)C(=O)OCC(NC(=O)c1nc3ccccc3cc1O)C(=O)NC(C)C(=O)N2C` (configuration not stated), the TGI in the assay on M14 melanoma was less than 0.0001 µM; in the assay on A549 NSCLC, 20.1 µM; in the assay with HT29 colon, 4.21 µM; in the assay on NCI/ADR-RES ovarian it was 72.7 µM; in the assay on TK-10 renal, 0.000416 µM; in the assay with SF-268 CNS, 0.00684 µM and 0.0159 µM. Besides, the GI50 with NCI/ADR-RES ovarian was 0.124 µM.

As to `CCOC(=O)c1cn(-c2ccc(Cl)cc2)c(=O)n2c1nc1ccccc12`, the TGI with M14 melanoma, with SN12C renal, in the assay with MOLT-4 leukemia, in the assay on A549 NSCLC, in the assay on HT29 colon and in the assay on NCI/ADR-RES ovarian was greater than 100 µM in each case. Further, the TGI with SK-MEL-2 melanoma and in the assay with OVCAR-8 ovarian was greater than 100 µM each time.

Turning to `COc1cc(C2C3=C(COC3=O)OC(C)(C)Oc3cc4c(cc32)OCO4)cc(OC)c1OC` (configuration not stated), the TGI in the assay on SN12C renal was greater than 100 µM; with MOLT-4 leukemia, greater than 100 µM; in the assay with A549 NSCLC, greater than 100 µM; in the assay on HT29 colon, 0.662 µM; in the assay on SK-MEL-2 melanoma, 70.1 µM; with TK-10 renal it was greater than 100 µM. Also, the TGI with OVCAR-8 ovarian is greater than 100 µM; with SF-268 CNS, greater than 31.6 µM.

As for `CC1=CC[C@@H]2CC[C@]3(C)[C@H](CC[C@@H]4[C@@]5(C)CCCNC(C)(C)[C@@H]5CC[C@]43C)[C@H]2[C@@H]1C`, the GI50 with M14 melanoma was 1.73 µM; with SN12C renal, 1.83 µM; in the assay on NCI/ADR-RES ovarian, 1.84 µM; in the assay on SK-MEL-2 melanoma, 1.81 µM; in the assay on TK-10 renal it was 1.81 µM; in the assay with SF-268 CNS, 1.97 µM. The TGI is 3.26 µM in the assay on M14 melanoma; 3.44 µM in the assay on SN12C renal; 3.52 µM in the assay with NCI/ADR-RES ovarian; 3.48 µM in the assay on SK-MEL-2 melanoma; 3.37 µM in the assay on TK-10 renal; 3.71 µM in the assay with SF-268 CNS.

Regarding `COc1ccc(CNc2nc(NCc3ccc(OC)cc3)nc(N3CCOCC3)n2)cc1`, the TGI in the assay on M14 melanoma was greater than 100 µM; in the assay with SN12C renal, greater than 100 µM; in the assay with MOLT-4 leukemia it was 10.9 µM; with A549 NSCLC, greater than 100 µM; in the assay on HT29 colon, 9.63 µM; with NCI/ADR-RES ovarian, 13 µM. The TGI in the assay with SK-MEL-2 melanoma is greater than 100 µM; in the assay on TK-10 renal it was 28.8 µM; with OVCAR-8 ovarian, greater than 100 µM.

On to `COC(=O)C1(C(=O)OC)N=C(C)OC1C(C)C` (configuration not stated), for which the TGI in the assay with M14 melanoma, in the assay on SN12C renal, in the assay on MOLT-4 leukemia, in the assay with A549 NSCLC, in the assay with NCI/ADR-RES ovarian and with SK-MEL-2 melanoma was greater than 100 µM in each case. Further, the TGI in the assay on TK-10 renal and with OVCAR-8 ovarian was greater than 100 µM throughout.

On to `COc1c/c(=C2/C=c3ccccc3=N2)[nH]/c1=C/c1[nH]c(C)cc1C`, for which the GI50 in the assay with MOLT-4 leukemia was 0.0293 µM; in the assay with A549 NSCLC it was 0.219 µM; with SK-MEL-2 melanoma, 0.029 µM; in the assay with OVCAR-8 ovarian, 0.0448 µM; in the assay with SF-268 CNS it was 0.0309 µM. For the same compound, the TGI with MOLT-4 leukemia was 2.95 µM; in the assay with A549 NSCLC it was greater than 100 µM; in the assay with SK-MEL-2 melanoma it was 0.119 µM; in the assay with OVCAR-8 ovarian it was greater than 100 µM; in the assay on SF-268 CNS, greater than 100 µM.

With `O=C(N=Nc1ccccc1Br)NNc1ccccc1Br`, the TGI in the assay on M14 melanoma, with SN12C renal, with MOLT-4 leukemia, with A549 NSCLC, with HT29 colon and in the assay with SK-MEL-2 melanoma was greater than 100 µM each time. Also, the TGI with TK-10 renal, in the assay with OVCAR-8 ovarian and in the assay with SF-268 CNS was greater than 100 µM each time.

Regarding `COc1cc(/C=C2/SC(c3ccccc3)N(c3cccc([N+](=O)[O-])c3)C2=O)cc(OC)c1OC` (configuration not stated), the TGI in the assay on M14 melanoma, in the assay with SN12C renal, in the assay with MOLT-4 leukemia, in the assay with A549 NSCLC, in the assay on NCI/ADR-RES ovarian and in the assay on SK-MEL-2 melanoma was greater than 100 µM in each case. In addition, the TGI with TK-10 renal, in the assay with OVCAR-8 ovarian and in the assay with SF-268 CNS was greater than 100 µM throughout.

`CC(C)(C)OC(=O)CC(NC(=O)OC(C)(C)C)C(=O)NC(CCCCNC(=O)OCc1ccccc1)C(=O)NC(C)(C)C(=O)NCCC(=O)OCc1ccccc1` (configuration not stated) (Boc-D(OtBu)K(Cbz)[Aib][βAla]-OBn; configuration not given here): the TGI in the assay with M14 melanoma, with SN12C renal, with MOLT-4 leukemia, in the assay with A549 NSCLC, in the assay on HT29 colon and with NCI/ADR-RES ovarian was greater than 100 µM each time. For the same compound, the TGI with TK-10 renal, in the assay on OVCAR-8 ovarian and in the assay on SF-268 CNS was greater than 100 µM in each case.

As to `CC[N+](CC)=c1ccc2nc3c(cc(N)c4ccccc43)oc-2c1`, the GI50 with M14 melanoma is 0.216 µM; in the assay with MOLT-4 leukemia it was 0.122 µM; with SK-MEL-2 melanoma it was 0.968 µM; in the assay with TK-10 renal it was 0.489 µM; in the assay on OVCAR-8 ovarian, 1.07 µM. Further, the TGI in the assay with M14 melanoma stood at 0.61 µM; in the assay on MOLT-4 leukemia it was 0.334 µM; in the assay on SK-MEL-2 melanoma, 2.25 µM; in the assay with TK-10 renal, 1.14 µM; in the assay with OVCAR-8 ovarian it was 3.43 µM.

Take `CCOC(=O)c1sc2c(c1OC(=O)c1ccccc1)c(=O)n(-c1ccccc1)c(=S)n2-c1ccccc1`: the TGI is 45.2 µM with M14 melanoma; greater than 100 µM with SN12C renal; greater than 100 µM in the assay on MOLT-4 leukemia; 64.2 µM in the assay with A549 NSCLC; 38.1 µM in the assay with HT29 colon; 51 µM with NCI/ADR-RES ovarian. Further, the TGI with TK-10 renal, in the assay with OVCAR-8 ovarian and in the assay on SF-268 CNS was greater than 100 µM each time.

As for `NC(=O)COc1ccccc1`, the TGI with M14 melanoma, in the assay with SN12C renal, with MOLT-4 leukemia, in the assay with A549 NSCLC, with HT29 colon and with SK-MEL-2 melanoma was greater than 100 µM throughout. Also, the TGI in the assay with TK-10 renal, with OVCAR-8 ovarian and in the assay with SF-268 CNS was greater than 100 µM in each case.
